The source of these data is US6444683B2, “17-azolyl steroids useful as androgen synthesis inhibitors” (University of Maryland at Baltimore, priority 1997, dated 2002).

The conditions of series [1]: small group of men with advanced prostatic cancer; cited from earlier work.
The next series deals with T1, Rat P45017α (Rattus norvegicus, UniProt P11715).
T1 sequence (P11715 1-507): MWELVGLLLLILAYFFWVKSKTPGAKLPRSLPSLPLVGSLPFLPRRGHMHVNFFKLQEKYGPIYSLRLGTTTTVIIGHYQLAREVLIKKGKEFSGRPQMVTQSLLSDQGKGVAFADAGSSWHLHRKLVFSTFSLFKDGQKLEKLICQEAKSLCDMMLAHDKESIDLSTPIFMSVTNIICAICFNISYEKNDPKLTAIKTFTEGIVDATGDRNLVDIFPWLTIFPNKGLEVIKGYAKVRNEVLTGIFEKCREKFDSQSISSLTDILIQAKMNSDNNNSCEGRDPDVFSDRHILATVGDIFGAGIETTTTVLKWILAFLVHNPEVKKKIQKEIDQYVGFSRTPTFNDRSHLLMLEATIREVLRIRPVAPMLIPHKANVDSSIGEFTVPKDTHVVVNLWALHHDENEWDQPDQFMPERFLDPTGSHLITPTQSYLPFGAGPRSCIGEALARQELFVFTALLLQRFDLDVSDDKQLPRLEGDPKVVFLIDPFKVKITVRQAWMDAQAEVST
The series is described as follows: Inhibition of rat testicular microsomal P45017α (lyase activity). Type of series: biochemical. On the procedure:
(§1) The microsomes were stored at −70° C. until assayed. Just before use, the thawed microsomes were diluted with 0.1 M phosphate buffer (pH 7.4) to appropriate concentrations.
(§2) This assay measures only the lyase activity of the P45017α enzyme.
(§3) IC50 values for inhibitors were calculated from the linear regression line in the plot of logit of lyase activity versus log of inhibitor concentration. […] Each inhibitor was examined at three concentrations.

Series [2] deals with T2, human prostate 5α-reductase (Homo sapiens, UniProt P31213).
T2 construct: The enzymatic reactions were initiated by addition of human BPH microsomes; from tissue; host or cells: human benign prostatic hyperplasia (BPH) tissue, microsomal fraction
T2 sequence (P31213 1-254): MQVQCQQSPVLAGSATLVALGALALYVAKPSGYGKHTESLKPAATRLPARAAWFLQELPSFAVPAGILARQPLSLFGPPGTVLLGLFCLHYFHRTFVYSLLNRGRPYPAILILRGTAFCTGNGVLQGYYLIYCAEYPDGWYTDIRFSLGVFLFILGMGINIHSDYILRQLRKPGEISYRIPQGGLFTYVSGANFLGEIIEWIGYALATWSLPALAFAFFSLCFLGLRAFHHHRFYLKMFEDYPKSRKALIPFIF
The series is described as follows: Inhibition of human prostate 5α-reductase in BPH microsomes (conversion of [7-3H]-testosterone to DHT). It is filed as biochemical. The protocol: […] The ethanol was evaporated to dryness under a gentle stream of air. […] The enzymatic reactions were initiated by addition of human BPH microsomes (about 180 μg of microsomal protein in 500 μl of phosphate buffer) in a total volume of 1.0 ml, and the incubations were performed for 10 min under oxygen in a shaking water bath at 37° C. The incubations were terminated by placing the sample tubes on ice and the addition of ether. Also, [^14C]-DHT (3000 dpm) and cold DHT (50 μg) were added to each tube as an internal standard and visualization marker, respectively. The steroids were extracted with ether and separated by TLC (chloroform:ether, 80:20) and visualized by exposure to iodine vapor. The extracts were analyzed for ^3H and ^14C using a liquid scintillation counter. The percentage conversion of [7-^3H]-testosterone to [^3H]-dihydrotestosterone was calculated and used to determine 5α-reductase activity.

Another series deals with T3, Human P45017α (Homo sapiens, UniProt P05093).
T3 construct: Human testicular microsomes were prepared from human testes; from tissue; host or cells: human testes (untreated prostatic cancer patients undergoing orchidectomy), microsomal fraction
T3 sequence (P05093 1-508): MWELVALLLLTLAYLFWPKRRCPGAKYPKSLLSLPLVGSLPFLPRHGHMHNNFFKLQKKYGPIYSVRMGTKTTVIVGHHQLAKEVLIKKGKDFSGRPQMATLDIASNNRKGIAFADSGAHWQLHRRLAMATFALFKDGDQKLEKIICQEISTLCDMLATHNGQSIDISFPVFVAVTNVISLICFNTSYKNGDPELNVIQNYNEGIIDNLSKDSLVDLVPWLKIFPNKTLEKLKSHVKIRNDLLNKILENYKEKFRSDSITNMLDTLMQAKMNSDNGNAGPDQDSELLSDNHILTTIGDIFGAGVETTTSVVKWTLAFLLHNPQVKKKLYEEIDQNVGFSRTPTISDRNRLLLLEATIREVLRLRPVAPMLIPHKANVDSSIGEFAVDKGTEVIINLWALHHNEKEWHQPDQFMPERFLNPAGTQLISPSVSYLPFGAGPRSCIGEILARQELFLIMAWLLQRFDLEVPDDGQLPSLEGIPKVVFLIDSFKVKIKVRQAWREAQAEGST
The series is described as follows: Inhibition of human testicular microsomal P45017α (lyase activity, release of C3H3COOH from [21-3H3]-17α-hydroxypregnenolone). Type of series: biochemical. The settings on record: for Ki: Human P45017α Ki; for Inhibition of human P45017α, in words: human testicular microsomes; for inhibition at 0.15 µM: read-out: % Inhibition of human P45017α. On the procedure:
as §1, §2, §3

Series [3] has as its system LNCaP human prostatic cancer cell. The series is described as follows: Androgen-stimulated growth of LNCaP human prostatic cancer cells in vitro. The conditions noted are these: for Toxicity to LNCaP cells: concentration range 0.5-5.0 μM; for Antiandrogenic effects: inferred from inhibition of androgen-stimulated LNCaP growth.
A short description of series [4]: Stability at room temperature (TLC evidence). Type of series: physicochemical. The protocol:
The method followed that described for Synthesis Example 14, but using 3β-acetoxy-17-(1H-tetrazol-1-yl)-16-formylandrosta-5,16-diene (Compound 23) (140 mg, 0.3415 mmol). Purification of the crude product by FCC (silica gel, pet. ether/EtOAc (3:1)) gave Compound 26 (45 mg, 34.5%); ^1H NMR (300 MHz, CDCl3): δ 1.08 (3H, s, 18-Me), 1.20 (3H, s, 19-Me), 2.04 (3H, s, 3β-OAc), 4.62 (1H, m, 3α-H), 5.42 (1H, d, J=4.6Hz, 6-H), 6.00 (1H, s, 16-H) and 8.93 (1H, s, 5′-H). […] (TLC evidence) and was used for the subsequent reaction without further characterization.

In series [5] the test system is LNCaP human prostatic cancer cell. The settings on record: cited from earlier work.
In another series the test system is serum DHT levels. The settings on record: BPH patients; cited from earlier work.
Where [6] appears, read: Homo sapiens, LNCaP, read-out: Inhibition of DHT-induced growth of LNCaP cells.
Where [7] appears, read: Homo sapiens, LNCaP, read-out: Inhibition of testosterone-stimulated growth of LNCaP cells.

Entries after “also recorded” stand apart in the source; their conditions may differ. Where two headings read alike, the source gives them in different places.

Broadly, the IC50 is the concentration needed to halve the response being measured. Broadly, the Ki is a dissociation constant, usually derived from enzyme kinetics or from competition with a known ligand. Read a low Ki as higher affinity. The inhibition is the share of the control response that was lost under treatment.

For the compound `C[C@]12CCC(=O)C(O)=C1CC[C@@H]1[C@@H]2CC[C@]2(C)C(=O)CC[C@@H]12` [Compound 4-OHA, 4-hydroxyandrostene-3,17-dione], the “Patients with subjective responses” value in series [1] was 80%.
For `C[C@]12CC[C@H](O)CC1=CC[C@@H]1[C@@H]2CC[C@]2(C)C(n3ccnc3)=CC[C@@H]12` [Compound 11, 3β-hydroxy-17-(1H-imidazol-1-yl)androsta-5,16-diene], on Rat P45017α, the half-inhibitory concentration (IC50) was 9 ± 2 nM. Moreover, the “Increase of potency towards the rat enzyme compared with human P45017α” value at Rat P45017α (from IC50 values, rat vs human testicular microsomes) is given as “unchanged”. Besides, at Rat P45017α (rat testicular microsomes), the “Inhibition of rat testicular P45017α, in words” value is “powerful inhibitors”. Further, the IC50 in series [2] was about 400000 nM. Moreover, the “Inhibition of 5α-reductase, in words” value in series [2] (human prostate enzyme) is listed as “poor inhibitors; also recorded: neither compound inhibited 5α-reductase”. On Human P45017α, it took 8 nM to reach half-maximal inhibition (IC50); the Ki came out at 1.2 nM; the “Inhibition of human P45017α, in words” value is “potent inhibitors; also recorded: powerful inhibitors”; the inhibition at 0.15 µM stood at 97%. For the same compound, the “Nature of inhibition kinetics of P45017α” value at Human P45017α (Lineweaver-Burk analysis, progress curves) was “slow-binding inhibitor”. Moreover, the inhibition at 2.5 µM in series [3] (setting [6]) amounted to 100%. Besides, the inhibition at 1 µM in series [3] (setting [7]) is 100%. In addition, in series [3], the “Toxicity to LNCaP cells” value is given as “nor was toxic to the cells” and the Antiandrogenic effects entry is given as “strong antiandrogenic effects”.
At Rat P45017α, `C[C@]12CC[C@H](O)CC1=CC[C@@H]1[C@@H]2CC[C@]2(C)C(n3ccnn3)=CC[C@@H]12` [Compound 20, 3β-hydroxy-17-(1H-1,2,3-triazol-1-yl)androsta-5,16-diene] gave an IC50 of 10 ± 0.4 nM. In addition, in series [2] (human BPH microsomes, mean ± SDM of at least two experiments, read-out: 5α-Reductase IC50), the IC50 is about 10000 nM. Also, at Human P45017α, the IC50 was found to be 13 ± 1 nM; the Ki was 1.4 nM; the “Inhibition of human P45017α, in words” value is reported as “potent inhibitors; also recorded: powerful inhibitors”. In addition, on Human P45017α (inhibitor 150 nM, substrate 17α-hydroxypregnenolone 10 μM, mean of two determinations), the inhibition at 0.15 µM was 94%. The inhibition at 5 µM in series [3] (setting [6]) was 100%. Also, the inhibition at 2.5 µM in series [3] (setting [7]) was determined as 100%. In series [3], the “Toxicity to LNCaP cells” value is given as “nor was toxic to the cells” and the Antiandrogenic effects entry is “strong antiandrogenic effects”.
For `CC(=O)O[C@H]1CC[C@@]2(C)C(=CC[C@@H]3[C@@H]2CC[C@]2(C)C(n4cnnn4)=CC[C@@H]32)C1` [Compound 26, 3β-acetoxy-17-(1H-tetrazol-1-yl)androsta-5,16-diene], the “Stability at room temp.” value in series [4] is “not particularly stable at room temp”.
Take `C[C@]12CCC(=O)C[C@@H]1CC[C@@H]1[C@@H]2CC[C@]2(C)[C@@H](O)CC[C@@H]12` [DHT, dihydrotestosterone]: in series [5] (30 pM DHT), the “Stimulation of proliferation of LNCaP cells compared to control” value was 5 fold.
In the case of `CC(C)(C)NC(=O)[C@H]1CC[C@H]2[C@@H]3CC[C@H]4NC(=O)C=C[C@]4(C)[C@H]3CC[C@]12C` [Finasteride, reference compound], the “Reduction of serum DHT levels” value in the series on serum DHT levels was 65-80%. For the same compound, the IC50 in series [2] was 33 ± 2 nM.
On to `C[C@]12CC[C@H]3[C@@H](CCC4=CC(=O)CC[C@@]43C)[C@@H]1CC[C@@H]2O` [testosterone], for which the “Increase of growth of LNCaP cells compared to vehicle-treated cells” value in series [5] (0.1 nM testosterone) is 6 fold.
